The subject of series [1] is MDA-MB-231 tumor cells expressing PD-L1. Briefly: Rescue of mouse splenocyte proliferation inhibited by MDA-MB-231 tumor cells expressing PD-L1 (CFSE based assay). It counts as cell-based. Conditions: for Fold induction: % splenocyte proliferation / % background proliferation, background 1.0, stimulated 3.7; for % Splenocyte proliferation: mouse splenocytes + anti-CD3/CD28 + MDA-MB-231 cells + compound, 72 hrs, background 20, stimulated 74. The text has this: (§1) The effect of PD1 derived peptidomimetics on mouse splenocyte proliferation inhibited by recombinant PDL1 or tumor cells expressing PDL; analyzed by Fluorescence Activated Cell Shorting (FACS) method using CFSE (Carboxyfluorescein Diacetate Succinimidyl Ester) labeling.
Rescue of Mouse Splenocyte Proliferation in the Presence of Recombinant PD-L1/MDA MB-231 Cells Expressing PDL1: […]
(§2) Mouse splenocytes harvested from 6-8 weeks old C57 BL6 mice; RPMI 1640 (GIBCO, Cat #11875); DMEM with high glucose (GIBCO, Cat # D6429); Fetal Bovine Serum [Hyclone, Cat # SH30071.03]; Penicillin (10000 unit/ml)-Streptomycin (10,000 μg/ml) Liquid (GIBCO, Cat #15140-122); MEM Sodium Pyruvate solution 100 mM (100×), Liquid (GIBCO, Cat #11360); Nonessential amino acid (GIBCO, Cat #11140); L-Glutamine (GIBCO, Cat #25030); Anti-CD3 antibody (eBiosciences—16-0032); Anti-CD28 antibody (eBiosciences—16-0281); ACK lysis buffer (imp (GIBCO, Cat #-A10492); Histopaque (density-1.083 gm/ml) (SIGMA 10831); Trypan blue solution (SIGMA-T8154); 2 ml Norm Ject Luer Lock syringe—(Sigma 2014-12); 40 μm nylon cell strainer (BD FALCON 35230); Hemacytometer (Bright line-SIGMA Z359629); FACS Buffer (PBS/0.1% BSA): Phosphate Buffered Saline (PBS) pH 7.2 (HiMedia TS1006) with 0.1% Bovine Serum Albumin (BSA) (SIGMA A7050) and sodium azide (SIGMA 08591); 5 mM stock solution of CFSE: CFSE stock solution was prepared by diluting lyophilized CFSE with 180 μL of Di methyl Sulfoxide (DMSO C2H6SO, SIGMA-D-5879) and aliquoted in to tubes for further use. Working concentrations were titrated from 10 μM to 1 μM. (eBioscience—650850-85); 0.05% Trypsin and 0.02% EDTA (SIGMA 59417C); 96-well format ELISA plates (Corning CLS3390); BD FACS caliber (E6016); Recombinant Human B7-H1/PDL1 Fc Chimera (rh-PDL-1, cat no: 156-B7-100);
Splenocytes harvested in a 50 ml falcon tube by mashing mouse spleen in a 40 μm cell strainer were further treated with 1 ml ACK lysis buffer for 5 mins at room temperature. After washing with 9 ml of RPMI complete media, cells were re-suspended in 3 ml of 1×PBS in a 15 ml tube. 3 ml of Histopaque was added carefully to the bottom of the tube without disturbing overlaying splenocyte suspension. After centrifuging at 800×g for 20 mins at room temperature, the opaque layer of splenocytes was collected carefully without disturbing/mixing the layers. Splenocytes were washed twice with cold 1×PBS followed by total cell counting using Trypan Blue exclusion method and used further for cell based assays.
Splenocytes were cultured in RPMI complete media (RPMI+10% fetal bovine serum+1 mM sodium pyruvate+10,000 units/ml penicillin and 10,000 μg/ml streptomycin) and maintained in a CO2 incubator with 5% CO2 at 37° C.
CFSE is a dye that passively diffuses into cells and binds to intracellular proteins. 1×10^6 cells/ml of harvested splenocytes were treated with 5 μM of CFSE in pre-warmed 1×PBS/0.1% BSA solution for 10 mins at 37° C. Excess CFSE was quenched using 5 volumes of ice-cold culture media to the cells and incubated on ice for 5 mins. CFSE labelled splenocytes were further given three washes with ice cold complete RPMI media. CFSE labelled 1×10^5 splenocytes added to wells containing either MDA-MB231 cells (1×10^5 cells cultured in high glucose DMEM medium) or recombinant human PDL-1 (100 ng/ml) and test compounds. Splenocytes were stimulated with anti-mouse CD3 and anti-mouse CD28 antibody (1 μg/ml each), and the culture was further incubated for 72 hrs at 37° C. with 5% CO2. Cells were harvested and washed thrice with ice cold FACS buffer and % proliferation was analyzed by flow cytometry with 488 nm excitation and 521 nm emission filters.
(§3) Percent splenocyte proliferation was analyzed using cell quest FACS program and fold induction was calculated by normalizing individual values to % background proliferation. […]

The target of another series is T1, recombinant human PDL-1 (Homo sapiens, UniProt Q9NZQ7).
T1 construct: Fc (Fc chimera); purchased R&D Systems 156-B7-100
Briefly: Rescue of mouse splenocyte proliferation inhibited by recombinant human PDL-1 (CFSE, FACS). It counts as cell-based. Conditions: mouse splenocytes, anti-CD3/CD28 stimulated, rh-PDL-1 100 ng/ml, 72 hrs.
Source text: as §1
Rescue of Mouse Splenocyte Proliferation in the Presence of Recombinant PD-L1/MDA MB-231 Cells Expressing PDL1:
Alternatively, recombinant human PD-L1 (rh-PDL-1, cat no: 156-B7-100, R&D Systems) was also used as the source of PD-Ll.
as §2, with “Working concentrations were titrated from 10 μM to 1 μM. (eBioscience—650850-85); 0.05% Trypsin and 0.02% EDTA (SIGMA 59417C); 96-well format ELISA plates (Corning CLS3390); BD FACS caliber (E6016); Recombinant Human B7-H1/PDL1 Fc Chimera (rh-PDL-1, cat no: 156-B7-100);” left out
CFSE is a dye that passively diffuses into cells and binds to intracellular proteins. […] Cells were harvested and washed thrice with ice cold FACS buffer and % proliferation was analyzed by flow cytometry with 488 nm excitation and 521 nm emission filters.
as §3

In series [2] the test system is CT26 (murine colon carcinoma) cells. Briefly: In vivo efficacy on primary tumour growth in CT-26 colon cancer model. The arrangement: species or system mouse. Conditions: male Balb/c mice, 3 mg/kg. The method, then:
Two million CT26 (murine colon carcinoma) cells injected to male Balb/c mice (s.c) on day 1 and dosing started on Day 5. Each group consisted of ten animals. Tumor volumes were measured 3 times a week, body weight and clinical signs monitored daily. Compound #2 dosed at 3 mg/kg, inhibited the tumour growth to the extent of 46 percent (p<0. p<0.01, 2-way ANOVA) (FIG. 2).

In another series the target is T2, recombinant mouse PDL-2 (Mus musculus, UniProt Q9WUL5).
T2 construct: purchased R&D Systems 1022-PL-100
Briefly: Rescue of splenocyte effector function, IFN-γ release by ELISA, recombinant mouse PDL-2. The note with it: mouse splenocytes, anti-CD3/CD28, PDL-2 100 ng/ml, 72 hrs, read-out: EC50 (nM), IFN-γ release, in presence of recombinant mouse PDL-2. It counts as cell-based. The method, then:
(§4) 1×10^5 splenocytes (isolated as described earlier) were added to wells containing recombinant mouse PDL-1 (cat no: 1019-B7-100, R&D Systems) or PDL-2 (Cat no: 1022-PL-100, R&D Systems) (both at 100 ng/ml) and test peptidomimetics. Splenocytes were stimulated with anti-mouse CD3 (eBiosciences—16-0032) and anti-mouse CD28 antibody (eBiosciences—16-0281) (1 μg/ml each) and the culture was further incubated for 72 hrs at 37° C. with 5% CO2. After 72 hours of incubation the cell culture supernatants were collected after brief centrifugation of culture plates (200 g×5 mins at 4° C.) and processed for mouse IFN-γ measurement by ELISA following manufacturer's protocol (e Biosciences; 88-7314). In brief, 96 well ELISA plates were coated with 100 μl/well of capture antibody in coating buffer and incubated overnight at 4° C. Plates were washed five times with wash buffer and further blocked with 200 μl of 1× assay diluents for 1 hr at RT. Following wash step, 100 μl of cell culture supernatants were added to wells and further incubated for 2 hrs at RT. Appropriate standards were also included. After wash step, plate was incubated for one hour with 100 μl/well of detection antibody. The wash step was repeated and the plate was incubated for 30 minutes with 100 μl/well of Avidin-HRP. The plate was washed 7 times with wash buffer and incubated for 15 minutes with 100 μl/well of substrate solution. 50 μl of stop solution was added to each well and the plate was read at 450 nm. The absorbance values were then plotted against the standards and the concentration of IFN-γ was determined using GraphPad Prism software. Each experimental condition was carried out in triplicates. Percent IFN-γ release for each test compound concentration was calculated by normalising individual test compound IFN-γ values to anti-CD3+anti-CD28 stimulated IFN-γ value. The percent IFN-γ release by test compounds were calculated using following formula: % IFN-γ release=[(Test compound IFN-γ−PDL background control)/(anti-CD3+anti-CD28 positive control−PDL background control)]*100. […]
On the technique in general: An ELISA detects its analyte on a solid surface through an enzyme-linked reagent.

In another series the target is T3, recombinant mouse PDL-1 (Mus musculus, UniProt Q9EP73).
T3 construct: purchased R&D Systems 1019-B7-100
Briefly: Rescue of splenocyte effector function, IFN-γ release by ELISA, recombinant mouse PDL-1. The series is classed as cell-based. Conditions: mouse splenocytes, anti-CD3/CD28, PDL-1 100 ng/ml, 72 hrs, read-out: EC50 (nM), IFN-γ release, in presence of recombinant mouse PDL-1. As for the experimental part:
as §4

The EC50 is the concentration that produces a half-maximal response.

T2 sequence (Q9WUL5 with tags, fused parts or gaps limits assumed): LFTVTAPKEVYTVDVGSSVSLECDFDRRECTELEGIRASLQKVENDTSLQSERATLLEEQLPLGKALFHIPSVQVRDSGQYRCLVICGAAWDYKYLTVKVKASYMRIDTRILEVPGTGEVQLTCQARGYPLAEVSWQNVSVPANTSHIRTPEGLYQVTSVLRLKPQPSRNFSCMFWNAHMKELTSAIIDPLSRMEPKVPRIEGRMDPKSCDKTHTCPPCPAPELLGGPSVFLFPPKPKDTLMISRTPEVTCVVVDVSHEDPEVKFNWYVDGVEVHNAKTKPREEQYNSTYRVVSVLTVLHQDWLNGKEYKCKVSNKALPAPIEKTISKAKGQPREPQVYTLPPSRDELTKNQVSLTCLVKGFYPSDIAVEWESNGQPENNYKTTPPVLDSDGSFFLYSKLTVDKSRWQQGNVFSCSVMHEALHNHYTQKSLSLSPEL
T1 sequence (Q9NZQ7 with tags, fused parts or gaps limits assumed): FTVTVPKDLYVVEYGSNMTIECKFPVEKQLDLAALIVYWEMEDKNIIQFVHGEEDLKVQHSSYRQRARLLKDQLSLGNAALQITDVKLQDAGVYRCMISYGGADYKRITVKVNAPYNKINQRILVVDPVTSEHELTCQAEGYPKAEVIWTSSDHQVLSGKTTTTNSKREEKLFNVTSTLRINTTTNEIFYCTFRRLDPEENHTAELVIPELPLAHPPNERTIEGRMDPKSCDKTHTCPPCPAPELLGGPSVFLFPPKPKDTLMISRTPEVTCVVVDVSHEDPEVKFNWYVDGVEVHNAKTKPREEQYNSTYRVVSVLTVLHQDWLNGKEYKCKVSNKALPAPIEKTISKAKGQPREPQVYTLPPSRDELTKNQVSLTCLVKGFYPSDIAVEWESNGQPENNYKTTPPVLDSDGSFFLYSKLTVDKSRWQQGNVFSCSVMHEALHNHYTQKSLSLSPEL
T3 sequence (Q9EP73 with tags, fused parts or gaps limits assumed): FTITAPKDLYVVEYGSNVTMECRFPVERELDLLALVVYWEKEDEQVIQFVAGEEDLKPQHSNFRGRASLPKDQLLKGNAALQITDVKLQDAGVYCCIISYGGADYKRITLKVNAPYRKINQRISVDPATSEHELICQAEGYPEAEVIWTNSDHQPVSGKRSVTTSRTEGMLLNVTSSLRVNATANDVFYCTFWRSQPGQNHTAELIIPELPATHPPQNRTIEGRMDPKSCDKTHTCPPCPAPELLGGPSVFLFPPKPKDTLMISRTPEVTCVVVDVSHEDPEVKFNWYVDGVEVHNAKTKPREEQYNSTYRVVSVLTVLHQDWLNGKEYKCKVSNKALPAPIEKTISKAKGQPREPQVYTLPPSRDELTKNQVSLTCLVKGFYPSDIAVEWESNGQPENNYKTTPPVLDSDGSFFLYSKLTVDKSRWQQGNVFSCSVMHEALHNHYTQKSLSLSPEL

Consider `C[C@H](NC(=O)N[C@@H](CC(N)=O)C(=O)NNC(=O)[C@@H](N)CO)C(=O)O` [Compound 17], for which, in series [1], the Fold induction came to 3 and the “% Splenocyte proliferation” value turned out to be 59%.

In the case of `CNC(=O)N[C@H](C(=O)N[C@@H](CC(N)=O)C(=O)NNC(=O)[C@@H](N)CO)C(C)O` (some centres unmarked) [Compound 18], in series [1], the Fold induction is reported as 3 and the “% Splenocyte proliferation” value was determined as 59%.

For `CC(O)[C@H](NC(=O)N[C@H](CC(N)=O)C(=O)NNC(=O)[C@H](N)CO)C(=O)O` (some centres unmarked) [Compound 15], in series [1], the Fold induction is reported as 2.9 and the “% Splenocyte proliferation” value is reported as 58%.

With `CCC(C)[C@H](NC(=O)N[C@@H](CC(N)=O)C(=O)NNC(=O)[C@@H](N)CO)C(=O)O` (some centres unmarked) [Compound 8], in series [1], the Fold induction turned out to be 3 and the “% Splenocyte proliferation” value is 60%.

For `CC(O)[C@H](NC(=O)N[C@@H](CC(N)=O)C(=O)NNC(=O)[C@@H](N)CO)C(=O)O` (some centres unmarked) [Compound 2], the 50% effective concentration (EC50) on recombinant human PDL-1 was determined as 23 nM. Besides, in series [1], the Fold induction is on record as 3.4 and the “% Splenocyte proliferation” value came to 68%. In series [2] (CT26 model), the “body weight reduction during the period of dosing” value was “no body weight reduction” and the “clinical signs during the period of dosing” value is listed as “no clinical signs”. The “inhibition of tumour growth” value in series [2] (CT26 s.c., dosing from Day 5) was determined as 46%. Further, the EC50 at recombinant mouse PDL-2 is 40 nM. For the same molecule, the half-maximal effective concentration (EC50) at recombinant mouse PDL-1 turned out to be 30 nM.

`COC(=O)[C@@H](NC(=O)N[C@@H](CC(N)=O)C(=O)NNC(=O)[C@@H](N)CO)C(C)O` (some centres unmarked) [Compound 10]: in series [1], the Fold induction is given as 3.4 and the “% Splenocyte proliferation” value worked out at 67%.

Consider `NC(=O)C[C@H](NC(=O)N[C@@H](CC(=O)O)C(=O)O)C(=O)NNC(=O)[C@@H](N)CO` [Compound 7], for which, in series [1], the Fold induction worked out at 2.9 and the “% Splenocyte proliferation” value is reported as 57%.

`CC(O)[C@H](NC(=O)N[C@@H](CC(N)=O)C(=O)NNC(=O)[C@@H](N)CO)C(N)=O` (some centres unmarked) [Compound 6]: in series [1], the Fold induction is listed as 2.3 and the “% Splenocyte proliferation” value is recorded as 46%.

For the molecule `CC(O)[C@@H](N)C(=O)NNC(=O)[C@@H](CC(N)=O)NC(=O)N[C@H](CO)C(=O)O` (some centres unmarked) [Compound 13], the 50% effective concentration (EC50) on recombinant human PDL-1 is 35 nM; at recombinant mouse PDL-2 it was 30 nM; at recombinant mouse PDL-1, 40 nM. The molecule also had a Fold induction in series [1] of 3.4. In addition, in series [1], the “% Splenocyte proliferation” value worked out at 67%.

Consider `COC[C@H](N)C(=O)NNC(=O)[C@H](CC(N)=O)NC(=O)N[C@H](C(=O)O)C(C)O` (some centres unmarked) [Compound 11], for which, in series [1], the Fold induction is given as 2.2 and the “% Splenocyte proliferation” value is 44%.

Take `CC(O)[C@H](N)C(=O)NNC(=O)[C@H](CC(N)=O)NC(=O)N[C@@H](CO)C(=O)O` (some centres unmarked) [Compound 12]: the figures for the concentration giving a half-maximal response (EC50) on recombinant human PDL-1, at recombinant mouse PDL-2 and on recombinant mouse PDL-1 were 22 nM, 62 nM and 27 nM, respectively.

For the molecule `NC(=O)C[C@H](N)C(=O)NNC(=O)[C@@H](N)CO` [Compound 1], in series [1], the Fold induction worked out at 2.8 and the “% Splenocyte proliferation” value is 56%.

With `CC(O)[C@H](N)C(=O)N[C@@H](CC(N)=O)C(=O)NNC(=O)[C@@H](N)CO` (some centres unmarked) [Compound 5], in series [1], the Fold induction turned out to be 3 and the “% Splenocyte proliferation” value is 60%.

Turning to `CN[C@@H](CO)C(=O)NNC(=O)[C@H](CC(N)=O)NC(=O)N[C@H](C(=O)O)C(C)O` (some centres unmarked) [Compound 4], in series [1], the Fold induction came out at 2.8 and the “% Splenocyte proliferation” value is on record as 56%.

The values are drawn from US9044442B2, “Peptidomimetic compounds as immunomodulators” (AURIGENE DISCOVERY TECHNOLOGIES LIMITED, priority 2012, dated 2015).
